Measurements published in PubChem BioAssay AID192 (DTP/NCI, 2004).
Inconclusive results and toxic doses are left out.

Test system: BDF1 mice, B16 melanoma ip, median survival T/C
Test: NCI In Vivo Anticancer Drug Screen. Data for tumor model B16 Melanoma (intraperitoneal) in B6D2F1 (BDF1) mice
Details: endpoint: median survival time, higher = longer survival
How it was run: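 Vehicle-treated animals serve as the reference (C); treated animals (T) are scored for survival or tumor size after tumor transplantation.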

[1] = dose: 100.0 mg/kg/injection, schedule: Q01DX009 (ip), vehicle: Klucel (hydroxypropylcellulose) (HPC)
[2] = dose: 200.0 mg/kg/injection, schedule: Q01DX009 (ip), vehicle: Klucel (hydroxypropylcellulose) (HPC)
[3] = dose: 50.0 mg/kg/injection, schedule: Q01DX009 (ip), vehicle: saline with Tween-80
[4] = dose: 100.0 mg/kg/injection, schedule: Q01DX009 (ip), vehicle: saline with Tween-80

In the case of `COC(=O)C12Oc3ccc(-c4ccc5c(c4O)C(O)=C4C(=O)CC(C)C(O)C4(C(=O)OC)O5)c(O)c3C(O)=C1C(=O)CC(C)C2O` (configuration not stated), the T/C (dose: 0.15 mg/kg/injection, schedule: Q01DX009 (ip), vehicle: saline with Tween-80) was 98 % of control, the T/C (dose: 0.31 mg/kg/injection, schedule: Q01DX009 (ip), vehicle: saline with Tween-80) was 93 % of control and the T/C (dose: 0.62 mg/kg/injection, schedule: Q01DX009 (ip), vehicle: saline with Tween-80) was 104 % of control. For the same compound, the T/C (dose: 1.25 mg/kg/injection, schedule: Q01DX009 (ip), vehicle: saline with Tween-80) was 95 % of control.

With `O=[N+]([O-])c1ccc2nc(-c3ccccc3)c(-c3ccccc3)nc2c1` the T/C [1] was 102 % of control and the T/C [2] was 88 % of control.

`CN(C)CCCN1Cc2ccccc2Cc2ccccc21` was tested, and the T/C (dose: 6.25 mg/kg/injection, schedule: Q01DX009 (ip), vehicle: saline) was 105 % of control, the T/C (dose: 12.5 mg/kg/injection, schedule: Q01DX009 (ip), vehicle: saline) was 103 % of control and the T/C (dose: 25.0 mg/kg/injection, schedule: Q01DX009 (ip), vehicle: saline) was 111 % of control. For the same compound, the T/C (dose: 50.0 mg/kg/injection, schedule: Q01DX009 (ip), vehicle: saline) was 101 % of control and the T/C (dose: 100.0 mg/kg/injection, schedule: Q01DX009 (ip), vehicle: saline) was 107 % of control.

For `c1ccc([Te][Te]c2ccccc2)cc1`, the T/C (dose: 3.0 mg/kg/injection, schedule: Q01DX009 (ip), vehicle: saline with Tween-80) was 123 % of control and the T/C (dose: 6.0 mg/kg/injection, schedule: Q01DX009 (ip), vehicle: saline with Tween-80) was 123 % of control.

With `Cc1ccc(C)c(NC(=O)c2ccccc2C(=O)O)c1` the T/C [1] was 94 % of control and the T/C [2] was 91 % of control.

`COc1ccc(C(=O)/C=C/c2ccc3c(c2)OCO3)cc1OC` was tested, and the T/C [1] was 96 % of control and the T/C [2] was 93 % of control.

In the case of `CC(=O)NNC(=O)c1ccccc1`, the T/C (dose: 12.5 mg/kg/injection, schedule: Q#A X018 (ip), vehicle: water) was 93 % of control, the T/C (dose: 25.0 mg/kg/injection, schedule: Q#A X018 (ip), vehicle: water) was 93 % of control and the T/C (dose: 50.0 mg/kg/injection, schedule: Q#A X018 (ip), vehicle: water) was 106 % of control.

In the case of `CC(C)C(O)(C(=O)NN)C(=O)NN`, the T/C (dose: 50.0 mg/kg/injection, schedule: Q04DX003 (ip), vehicle: saline) was 91 % of control, the T/C (dose: 100.0 mg/kg/injection, schedule: Q04DX003 (ip), vehicle: saline) was 96 % of control and the T/C (dose: 200.0 mg/kg/injection, schedule: Q04DX003 (ip), vehicle: saline) was 117 % of control.

With `O=C(O)CC1(CC(=O)O)CCCCC1` the T/C [3] was 100 % of control and the T/C [4] was 98 % of control.

For `C/C(=N\O)C(=O)c1ccccc1`, the T/C [1] was 100 % of control, the T/C [2] was 100 % of control and the T/C (dose: 400.0 mg/kg/injection, schedule: Q01DX009 (ip), vehicle: Klucel (hydroxypropylcellulose) (HPC)) was 103 % of control.

`O=Cc1ccc(/C=C2\C=Cc3ccccc32)cc1` was tested, and the T/C [4] was 97 % of control.

`CC(=O)Oc1[nH]c(=O)c2cccc3c2c1CCC3` was tested, and the T/C (dose: 25.0 mg/kg/injection, schedule: Q01DX009 (ip), vehicle: saline with Tween-80) was 106 % of control, the T/C [3] was 107 % of control and the T/C [4] was 115 % of control. For the same compound, the T/C (dose: 200.0 mg/kg/injection, schedule: Q01DX009 (ip), vehicle: saline with Tween-80) was 114 % of control and the T/C (dose: 400.0 mg/kg/injection, schedule: Q01DX009 (ip), vehicle: saline with Tween-80) was 105 % of control.

For `COc1cc(N)c2c(c1N)C(=O)c1ccccc1C2=O`, the T/C (dose: 50.0 mg/kg/injection, schedule: Q04DX003 (ip), vehicle: Klucel (hydroxypropylcellulose) (HPC)) was 100 % of control, the T/C (dose: 100.0 mg/kg/injection, schedule: Q04DX003 (ip), vehicle: Klucel (hydroxypropylcellulose) (HPC)) was 103 % of control and the T/C (dose: 200.0 mg/kg/injection, schedule: Q04DX003 (ip), vehicle: Klucel (hydroxypropylcellulose) (HPC)) was 95 % of control.
